The source of these data is patent publication US10858360B2, “Tricyclic gyrase inhibitors” (priority 2011, dated 2020).

≈ marks a conversion by molar mass, not a printed value.

Assay type in all cases: cell-based
One test relates to E. coli ATCC 25922. The test is described as follows: MIC, E. coli ATCC 25922. As to conditions: for MIC: Escherichia coli.
In another test the test system is S. aureus ATCC 13709. The test is described as follows: MIC, S. aureus ATCC 13709 (Alamar Blue broth microdilution). As to conditions: for MIC: Staphylococcus aureus. On the technique in general: The colour change of resazurin is a common sign of viable cells or microbes.
Test [1] has as its system K. pneumoniae ATCC 700603. The test is described as follows: MIC, K. pneumoniae ATCC 700603. As to conditions: Klebsiella pneumoniae, ATCC700603, read-out: MIC Kpn.
For a further test, the system named is P. aeruginosa ATCC 15692. The test is described as follows: MIC, P. aeruginosa ATCC 15692. To be noted: Pseudomonas aeruginosa, ATCC15692; Pa = P. aeruginosa.
The subject of the next test is S. pneumoniae ATCC 51916. The test is described as follows: MIC, S. pneumoniae ATCC 51916. As to conditions: Streptococcus pneumoniae, ATCC51916; Spn = S. pneumoniae.
Another test relates to A. baumannii ATCC 19606. Description: MIC, A. baumannii ATCC 19606. As to conditions: Acinetobacter baumannii, ATCC19606; Ab = A. baumannii; strain not given.
The mark [2] stands for this setting: ATCC25922, E. coli, Alamar Blue read after overnight incubation at 35° C.
[3] abbreviates: ATCC25922, Ec = E. coli, strain not given.
[4] abbreviates: ATCC13709, S. aureus, Alamar Blue read after overnight incubation at 35° C.

In the case of `CNc1cc(C)cc2c1[nH]c1nc(Oc3cnc(C)nc3)nc(N3CC4C(N)C4C3)c12` (centres unmarked) [6.26], the “MIC Ec” value against E. coli ATCC 25922 was 1 µg/mL (≈ 2.4 µM). Also, the “MIC Sa” value with S. aureus ATCC 13709 was at most 0.5 µg/mL.
In the case of `CNc1cc(C)cc2c1[nH]c1nc(Oc3cncnc3)nc(N3CC4C(N)C4C3)c12` (centres unmarked) [6.27], in the test on E. coli ATCC 25922, the “MIC Ec” value came out at 1 µg/mL (≈ 2.48 µM). The “MIC Sa” value in the test on S. aureus ATCC 13709 was at most 0.5 µg/mL.
As usually defined, the MIC is the lowest concentration that inhibits growth of the organism. Consider `CNc1cc(F)c(C)c2c1[nH]c1nc(Oc3cnc(C)nc3)nc(N3CC4C[C@@H]3C[C@H]4N)c12` [6.28], for which the MIC in the test on E. coli ATCC 25922 (setting [2]) was at most 0.5 µg/mL; in the test with E. coli ATCC 25922 (setting [3]), at most 0.5 µg/mL; in test [1] it was 2 µg/mL (≈ 4.46 µM); with S. aureus ATCC 13709 (setting [4]), at most 0.5 µg/mL; in the test with S. aureus ATCC 13709 (ATCC13709, Sa = S. aureus), at most 0.5 µg/mL; in the test on P. aeruginosa ATCC 15692, 1 µg/mL (≈ 2.23 µM). Moreover, the MIC with S. pneumoniae ATCC 51916 and against A. baumannii ATCC 19606 was at most 0.5 µg/mL in each case.
As for `CNc1cc(F)c(C)c2c1[nH]c1nc(Oc3cnc(C)nc3)nc(N3C[C@H](N)C4(CC4)C3)c12` [6.29], the minimal inhibitory concentration (MIC) against E. coli ATCC 25922 (setting [2]) is at most 0.5 µg/mL; in the test on E. coli ATCC 25922 (setting [3]), at most 0.5 µg/mL; in test [1], 2 µg/mL (≈ 4.46 µM); in the test on S. aureus ATCC 13709 (setting [4]) it was at most 0.5 µg/mL; against S. aureus ATCC 13709 (ATCC13709, Sa = S. aureus), at most 0.5 µg/mL; against P. aeruginosa ATCC 15692, 2 µg/mL (≈ 4.46 µM). Also, the MIC in the test on S. pneumoniae ATCC 51916 and in the test on A. baumannii ATCC 19606 was at most 0.5 µg/mL each time.
Turning to `CNc1nccc2c1[nH]c1nc(Sc3cnc4nccnc4c3)nc(N3CC[C@@H](N)C3)c12` [7.01], the figures for the MIC with E. coli ATCC 25922 (setting [2]) and in the test with S. aureus ATCC 13709 (setting [4]) were over 64 µg/mL and 8 µg/mL (≈ 18 µM), respectively.
For `CNc1nccc2c1[nH]c1nc(Oc3cncnc3)nc(N3CC[C@@H](N)C3)c12` [7.02], the figures for the MIC in the test with E. coli ATCC 25922 (setting [2]) and with S. aureus ATCC 13709 (setting [4]) were 32 µg/mL (≈ 84.8 µM) and over 64 µg/mL, respectively.
`COc1nccc2c1[nH]c1nc(Sc3cnc4cccnc4c3)nc(N3CC4C(N)C4C3)c12` (centres unmarked) [7.03]: the MIC was over 64 µg/mL in the test with E. coli ATCC 25922 (setting [2]) and 2 µg/mL (≈ 4.38 µM) in the test with S. aureus ATCC 13709 (setting [4]).
With `CNc1ncnc2c1[nH]c1nc(Oc3cncc(F)c3)nc(N3CC4C(N)C4C3)c12` (centres unmarked) [7.04], the results for the MIC in the test on E. coli ATCC 25922 (setting [2]) and with S. aureus ATCC 13709 (setting [4]) were 32 µg/mL (≈ 78.5 µM) and 8 µg/mL (≈ 19.6 µM), respectively.
For the compound `CNc1ncnc2c1[nH]c1nc(Oc3cnc(C)nc3)nc(N3CC4C(N)C4C3)c12` (centres unmarked) [7.05], the values for the MIC against E. coli ATCC 25922 (setting [2]) and against S. aureus ATCC 13709 (setting [4]) were 64 µg/mL (≈ 158 µM) and 8 µg/mL (≈ 19.8 µM), respectively.
The like results for `CNc1ncnc2c1[nH]c1nc(Oc3cncc(F)c3)nc(N3CC(N)C4(CC4)C3)c12` (centres unmarked) [7.06] were, in that order, 64 µg/mL (≈ 152 µM) and 8 µg/mL (≈ 19 µM).
The like results for `CNc1ncnc2c1[nH]c1nc(Oc3cncc(F)c3)nc(N3CCC4(CC4N)C3)c12` (centres unmarked) [7.07] were, in that order, over 64 µg/mL and 16 µg/mL (≈ 38 µM).
As for `CNc1ncnc2c1[nH]c1nc(Oc3cnc(C)nc3)nc(N3CC(N)C4(CC4)C3)c12` (centres unmarked) [7.08], the MIC was over 64 µg/mL in the test on E. coli ATCC 25922 (setting [2]) and 16 µg/mL (≈ 38.2 µM) with S. aureus ATCC 13709 (setting [4]).
On to `CNc1ncnc2c1[nH]c1nc(Oc3cnc(C)nc3)nc(N3CCC4(CC4N)C3)c12` (centres unmarked) [7.09], for which the MIC against E. coli ATCC 25922 (setting [2]) was over 64 µg/mL; against S. aureus ATCC 13709 (setting [4]), 8 µg/mL (≈ 19.1 µM).
With `CNc1ncnc2c1[nH]c1nc(Oc3cncnc3)nc(Oc3cncnc3)c12` [7.10], the MIC in the test on E. coli ATCC 25922 (setting [2]) and in the test on S. aureus ATCC 13709 (setting [4]) was over 64 µg/mL each time.
`CNc1ncnc2c1[nH]c1nc(-c3cncnc3)nc(N3CC4C(N)C4C3)c12` (centres unmarked) [7.11]: the MIC against E. coli ATCC 25922 (setting [2]) and against S. aureus ATCC 13709 (setting [4]) was over 64 µg/mL each time.
On to `CNc1ncnc2c1[nH]c1nc(Oc3cnc(C)nc3)nc(N3CCC(CN)C3)c12` (centres unmarked) [7.12], for which the minimal inhibitory concentration (MIC) in the test with E. coli ATCC 25922 (setting [2]) and in the test on S. aureus ATCC 13709 (setting [4]) was over 64 µg/mL in each case.
